In PubChem BioAssay AID179 (DTP/NCI, 2004) one finds outcome, EC50 and IC50 data, which are given here for 73 compounds.

Structures are written as SMILES. Calls of active or inactive are those of the source.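 How the source made its calls: active means compounds giving half or more protection of infected cells from virus-caused growth loss, again on retest; inactive means the rest.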

The test system of the test is CEM cells HIV-1 protection, formazan growth assay. Nature of the test: NCI AIDS Antiviral Assay. The following applies: for IC50: measured here: growth of uninfected CEM cells. In outline:
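Protection of CEM cells against HIV-1 was scored from cell growth (soluble formazan) across five concentrations, with parallel uninfected cells. Lack of protection may reflect toxicity.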

For `CC1(C=O)C(=O)CCC2(C)C3CC(=O)OC3CCC12` (stereo not given), the outcome was inactive.

For the compound `COc1cc2c(cc1OC)C1CC(=O)C(CCCCCCC3CN4CCc5cc(OC)c(OC)cc5C4CC3=O)CN1CC2` (stereo not given), the result was inactive. What is called EC50 is the concentration that produces a half-maximal response. By IC50 is commonly meant the concentration at which inhibition is half-maximal. High values mean lower potency, low ones higher potency. `N#C/C(=C\n1ccc(=O)[nH]c1=S)C(N)=O`: the EC50 was above 200 µM and the IC50 was above 200 µM. Turning to `CCC(=O)NCC1CCCN2CCCCC12` (stereo not given), the EC50 was above 200 µM and the IC50 is above 200 µM. Consider `C=CCC1C(O[Si](C)(C)C(C)(C)C)C(CO[Si](C)(C)C(C)(C)C)OC1n1ccc(=O)[nH]c1=O` (stereo not given), for which the EC50 is above 200 µM and the IC50 came out at 2.75 µM.

As to `C1N2CN3CN1CN(C2)C3`, the EC50 is above 200 µM and the half-inhibitory concentration (IC50) is 151 µM.

`CCOC(=O)CSC(=O)NCCCl`: the EC50 was above 1100 µM and the IC50 is 537 µM. Taken in the same sequence, the figures for `O=c1[nH]c2ccccc2c(=O)n1CCCN1CCN(c2cccc(Cl)c2)CC1` were above 200 µM and 50.1 µM. Taken in the same sequence, the figures for `CC1(C)C=[N+]([O-])C(C)(C)N1O` were above 200 µM and above 200 µM. With `O=C1OC(C(O)CO)C(O)=C1O` (stereo not given), the result was inactive. Consider `O=C1CC2(CCCC2)C(=O)N1c1cccc([N+](=O)[O-])c1`, for which the EC50 is above 347 µM and the IC50 is 275 µM. Taken in the same sequence, the figures for `Cn1c(N)c(-c2c3ccccc3nc3ccccc23)c(=O)n(C)c1=O` were above 40.7 µM and above 40.7 µM. Consider `CC(C)(C)C1CC[C@H]2c3c([nH]c4ccccc34)[C@H]3C(=O)N(c4ccc(F)cc4)C(=O)[C@H]3[C@H]2C1` (stereo not given in full), for which the EC50 is above 11.7 µM and the IC50 is above 11.7 µM. Take `Cc1cc(=O)c2c([nH]1)c1c(c3[nH]c(C)cc(=O)c32)Oc2ccccc2O1`: the EC50 was above 129 µM and the IC50 is 93.3 µM. Taken in the same sequence, the figures for `O=C(NC1C=Nc2ccc(Cl)cc2NC1=O)c1ccc(Cl)cc1` (stereo not given) were above 200 µM and above 200 µM.

With `CC(=O)CC(O)(C(F)(F)Cl)C(F)(Cl)Cl` (stereo not given), the EC50 is above 200 µM and the IC50 is above 200 µM. Consider `COc1ccccc1/C=C(\C#N)c1ccccc1`, for which the EC50 was above 22.4 µM and the IC50 is 11 µM. Taken in the same sequence, the figures for `CCCc1c[nH]c(-c2ccc(-c3cc(CCC)c(C=O)[nH]3)s2)c1` were above 11.5 µM and above 11.5 µM.

Regarding `CCOC(=O)c1ccc(CSc2ccccc2C(=O)O)cc1`, the EC50 was above 16.6 µM and the IC50 was above 16.6 µM.

As for `Cn1nccc2c(=O)n(C)c(=O)nc1-2`, the EC50 was above 200 µM and the IC50 is above 200 µM.

`CC12CCC(=O)[C@@]1(C)CCCC2O` (stereo not given in full): the result was inactive.

As to `O=C1CCC2(c3ccc(F)cc3)Nc3cc(Cl)ccc3N12` (stereo not given), the result was inactive.

In the case of `CN(C)c1ccc(C(=C2C=CC(=[N+](C)C)C=C2)c2cc(S(=O)(=O)O)cc3cc(S(=O)(=O)O)ccc23)cc1`, the EC50 is above 100 µM and the IC50 was above 100 µM. Turning to `CCOC(=O)/C(O)=C(\C=N\C(=S)Nc1ccc(Cl)c(Cl)c1)C(=O)OCC`, the EC50 is above 200 µM and the IC50 is above 200 µM. With `COc1ccc(/C=C2\CN(C)C/C(=C\c3ccc(OC)c(OC)c3OC)C2=O)c(OC)c1OC`, the EC50 is above 2 µM and the IC50 was found to be 0.331 µM.

For `O=C(NCCSSCCNC(=O)/C(Cc1ccc(O)c(Br)c1)=N/O)/C(Cc1ccc(O)c(Br)c1)=N/O`, the outcome was inactive. Still for that read-out and setting: in the case of `Nn1c(-c2ccccc2Cl)nc2ccccc2c1=O` it was “inactive”.

Consider `COC(=O)C1CC2C(=O)N(c3ccccc3)C(=O)C2c2c1n(C)c1ccccc21` (stereo not given), for which the EC50 was above 32.4 µM and the IC50 was above 32.4 µM.

As for `CC1=CC(c2ccccc2)n2c(nc3cc4ccccc4cc32)N1` (stereo not given), the EC50 was above 200 µM and the IC50 is above 200 µM. Consider `Cc1cc(Cl)ccc1N1C(=O)C(=O)C(c2nc3ccccc3s2)/C(=N\NC(=O)c2ccccc2O)C1=O` (stereo not given), for which the EC50 is above 25.7 µM and the IC50 is above 25.7 µM. Turning to `NC(=O)CCNC(=O)c1ccc(NC(=O)c2ccccc2SC(=O)CCCC[n+]2ccccc2)cc1`, the EC50 was 18.6 µM and the IC50 is 45.7 µM.

As to `[C-]#[O+].[C-]#[O+].[C-]#[O+].[Mo].c1ccc(P(CC[PH+](CC[PH+](CC[PH+](c2ccccc2)c2ccccc2)c2ccccc2)c2ccccc2)c2ccccc2)cc1` (stereo not given), the EC50 is above 6.17 µM and the IC50 is above 6.17 µM. As for `COc1ccc2c(c1)[n+](=O)c(C(=O)CC(=O)C(=O)Nc1cccc(C)c1C)c(C)n2[O-]`, the EC50 is above 117 µM and the concentration for half-maximal inhibition (IC50) is above 117 µM. As for `Cc1ccc(SCC(O)=C2C(=O)CCCC2=O)cc1`, the EC50 was above 245 µM and the IC50 came to 158 µM.

Take `CCc1cccc(C(C)CC)c1NC(=O)C(=O)C(CC(=O)Nc1ccc(Cl)c(Cl)c1)C(=O)OC` (stereo not given): the EC50 was above 186 µM and the IC50 was above 186 µM. Turning to `Cc1c(N=O)c(=O)n(-c2ccccc2)n1C`, the result was inactive.

Regarding `COc1cc(C2c3cc4c(cc3OC(O)C2C)OCO4)cc(OC)c1O` (stereo not given), the EC50 was above 200 µM and the IC50 worked out at 1.05 µM. The matching figures for `O=C(O)c1cc2ccccc2c(N=Nc2ccc(/C=C/c3ccc(N=Nc4c(O)c(C(=O)O)cc5ccccc45)cc3S(=O)(=O)O)c(S(=O)(=O)O)c2)c1O`: 8.51 µM and 50.1 µM. Take `CC(=O)c1c2c(cc3c1CC1(Cc4cc5c(cc4C1)CCCC5)C3)CCCC2`: the EC50 was above 200 µM and the IC50 amounted to 34.7 µM. Consider `COc1ccc(/C=C2/NC(=S)N=C2Cl)cc1`, for which the EC50 was above 200 µM and the IC50 is above 200 µM. With `CN(C)C(=S)/N=c1\ssc(=S)n1C`, the outcome was inactive. In the case of `CC(C)CCSSCCC(C)C`, the EC50 was above 200 µM and the IC50 is above 200 µM. For the compound `CC(=O)N1CC(C)(C)c2c(C)c(O)c(C)c(C)c21`, the EC50 was above 200 µM and the IC50 was 178 µM. Taken in the same sequence, the figures for `O=C1C=C(c2ccccc2)OC1(Cl)c1ccccc1` (stereo not given) were above 200 µM and 38 µM. Taken in the same sequence, the figures for `CCC/C=C/C=C/C(=O)OC1C(C)C2(O)C3C=C(C)C(=O)C3CC(COC(C)=O)=CC2C2C(C)(C)C12OC(=O)C(C)C` (stereo not given) were 0.977 µM and 1.02 µM. For the compound `BrC(Br)([P+](c1ccccc1)(c1ccccc1)c1ccccc1)[P+](c1ccccc1)(c1ccccc1)c1ccccc1`, the result was inactive.

`Cc1nn(C(=O)c2ccccc2O)c2c1C(c1ccc3ccccc3c1O)SC(N)=N2` (stereo not given): the EC50 is above 2 µM and the 50% inhibitory concentration (IC50) was 1.38 µM. Taken in the same sequence, the figures for `CCNC(=S)NNC(=O)c1csc(NC(=S)NC2CCCCC2)n1` were above 200 µM and 6.61 µM.

For `O=C1CNc2cc(N3CCOCC3)ccc2N1`, the EC50 was above 200 µM and the IC50 was found to be 28.2 µM. The matching figures for `O=C(O)C1=C(C(=O)Nc2ccccc2)C2C=CC1C2` (stereo not given): above 977 µM and 214 µM. The matching figures for `Clc1nc(Cl)nc(Nc2cccc3ccccc23)n1`: above 200 µM and 107 µM. In turn, `COC(=O)c1cc(=O)n2c(c1C(C)=O)N(C)CC2` displayed an EC50 above 427 µM and an IC50 above 427 µM. Regarding `O=S(=O)(SSS(=O)(=O)c1ccc(Cl)c(Cl)c1)c1ccc(Cl)c(Cl)c1`, the EC50 was above 53.7 µM and the IC50 was above 53.7 µM. On to `NS(=O)(=O)c1cc2c(cc1Cl)NC(/C(=N/NC(=O)c1ccncc1)C1C(=O)NC(=O)NC1=O)=NS2(=O)=O`, for which the EC50 is above 87.1 µM and the IC50 was above 87.1 µM. As for `NC(=O)c1ccc2c(c1)-c1nc-2nc2[n-]c(nc3nc(nc4[n-]c(n1)c1ccc(C(N)=O)cc41)-c1ccc(C(N)=O)cc1-3)c1ccc(C(N)=O)cc21.[Co+2]`, the EC50 was above 9.77 µM and the IC50 was 6.61 µM. Take `Cc1ccc(-c2nc3cc(N4CCN(C)CC4)c(F)cc3[nH]2)cc1`: the EC50 is above 200 µM and the IC50 was determined as 26.3 µM. As to `Cc1ccccc1NC(=O)C1C(=O)N(c2ccccc2C)C(=O)/C1=N\N` (stereo not given), the result was inactive. Turning to `O=C1/C(=C\c2cccc(Oc3ccccc3)c2)S(=O)(=O)C(c2ccccc2)N1Cc1ccccc1` (stereo not given), the EC50 was above 20 µM and the IC50 was above 20 µM. Consider `O=C(O)c1cc(OS(=O)(=O)O)c(OS(=O)(=O)O)c(OS(=O)(=O)O)c1`, for which the EC50 was above 200 µM and the IC50 was found to be 11.2 µM. For the compound `O=C(O)C[C@H]1CCCCC12CCOC2=O` (stereo not given in full), the outcome was inactive. Regarding `CCOC(=O)Cc1nc2c(N)ncnc2n1C1OC(COC(C)=O)C(OC(C)=O)C1OC(C)=O` (stereo not given), the EC50 is above 200 µM and the IC50 was above 200 µM.

For the compound `NC(=S)N/N=C1\CCCC\C1=N/NC(N)=S`, the EC50 was above 200 µM and the IC50 is 17.8 µM. Taken in the same sequence, the figures for `c1ccc(C2=NOCC3(c4ccccc4)OC23)cc1` (stereo not given) were above 31.6 µM and 12 µM. Consider `COc1cc2ccnc([C@@H](OC(=O)c3ccccc3)c3ccc(OC)c(OC)c3OC)c2cc1OC`, for which the outcome was inactive. Consider `c1csc(C(NC2=NCCO2)C2CC2)c1` (stereo not given), for which the EC50 was above 200 µM and the IC50 was 166 µM.

Take `C=CCOCn1cnc2c(N)ncnc21`: the outcome was inactive. For the compound `Cc1ccc(C(=O)C2CC3(CCC2(O)c2ccc(C)cc2)CC(=O)Nc2ccccc2C3=O)cc1` (stereo not given), the EC50 is above 200 µM and the IC50 turned out to be 89.1 µM. Take `CN(C)C1C(=O)C(C(=O)NCNCCC(=O)O)=C(O)C2(O)C(=O)C3=C(O)c4c(O)cccc4C(C)(O)C3CC12` (stereo not given): the EC50 was above 11.2 µM and the IC50 is above 11.2 µM. For `O=c1cc(-c2ccccc2)oc2ccccc12`, the EC50 was above 135 µM and the 50% inhibitory concentration (IC50) is 75.9 µM. Taken in the same sequence, the figures for `Cc1cccc(C)c1NC(=O)C(=O)CC(=O)/C=C/c1ccccc1` were above 776 µM and 389 µM. For `COc1cc(C)c2c(=O)c3c(oc2c1)C(=O)c1c(OC)c(OC)cc(OC)c1C3=O`, the result was inactive.

For the compound `CC1=CC(C)C(=O)N(CC(C)N2CCCC2)C(C)=C1` (stereo not given), the EC50 is above 191 µM and the IC50 was determined as 74.1 µM. On to `CC1(C)CC(O)C(C)(C)[C@@H](O)C1` (stereo not given in full), for which the outcome was inactive.
